assay: Effective concentration of compound in producing vasoconstrictions was determined; assay type: functional

Row | SMILES | pD2
1 | CC(C)[C@H](NC(=O)[C@@H]1NC(=O)[C@H](Cc2ccc(O)cc2)NC(=O)[C@H](CCCCN)NC(=O)[C@H](Cc2c[nH]c3ccccc23)NC(=O)[C@H](Cc2ccccc2)NC(=O)[C@@H](NC(=O)[C@@H](N)CC(=O)O)CSSC1(C)C)C(=O)O | 6.7
2 | CC(C)[C@H](NC(=O)[C@@H]1CSSC(C)(C)[C@@H](NC(=O)[C@@H](N)CC(=O)O)C(=O)N[C@@H](Cc2ccccc2)C(=O)N[C@@H](Cc2c[nH]c3ccccc23)C(=O)N[C@@H](CCCCN)C(=O)N[C@@H](Cc2ccc(O)cc2)C(=O)N1)C(=O)O | 9.6
3 | CC(C)[C@H](NC(=O)[C@@H]1CCSSC[C@H](NC(=O)[C@@H](N)CC(=O)O)C(=O)N[C@@H](Cc2ccccc2)C(=O)N[C@@H](Cc2c[nH]c3ccccc23)C(=O)N[C@@H](CCCCN)C(=O)N[C@@H](Cc2ccc(O)cc2)C(=O)N1)C(=O)O | < 6.5
4 | CC(C)[C@H](NC(=O)[C@@H]1CSSC[C@@H](NC(=O)[C@H](CC(=O)O)NC(=O)[C@H]2CCCN2C(=O)[C@@H](NC(=O)[C@@H](N)CCC(=O)O)[C@@H](C)O)C(=O)N[C@H](Cc2ccccc2)C(=O)N[C@@H](Cc2c[nH]c3ccccc23)C(=O)N[C@H](CCCCN)C(=O)N[C@@H](Cc2ccc(O)cc2)C(=O)N1)C(=O)O | 8.3
5 | CC(C)[C@H](NC(=O)[C@@H]1NC(=O)[C@H](Cc2ccc(O)cc2)NC(=O)[C@H](CCCCN)NC(=O)[C@H](Cc2c[nH]c3ccccc23)NC(=O)[C@H](Cc2ccccc2)NC(=O)[C@H](NC(=O)[C@@H](N)CC(=O)O)C(C)(C)SSC1(C)C)C(=O)O | 8.2
6 | CC(C)[C@H](NC(=O)[C@@H]1CSSC[C@@H](NC(=O)[C@@H](N)CC(=O)O)C(=O)N[C@@H](Cc2ccccc2)C(=O)N[C@@H](Cc2c[nH]c3ccccc23)C(=O)N[C@@H](CCCCN)C(=O)N[C@@H](Cc2ccc(O)cc2)C(=O)N1)C(=O)O | 8.6
